This is an account of results in patent US7410960B2, “Metal complexes and therapeutic uses thereof” (The University of Western Sydney, priority 2001, dated 2008).

Where “and” joins values, the source holds several entries; their conditions need not be identical. Equal values may be shown once. Read-outs that look alike come from different tables or passages of the source.

One experiment relates to KYSE 520 (esophagus). Description: Growth inhibition IC50, KYSE 520 (esophagus) cell line. The format is cell-based. As to conditions: value (standard deviation). On the procedure: (§1) When we compare the effect of changing the diamine from the non-chiral 1,2-diaminoethane (en) to the chiral ligands and 2S,3S-diaminobutane (2S,3S-bn) and 2R,3R-diaminobutane (2R,3R-bn) then the concentration inhibiting the exponential growth of cells to 50% is further reduction from 27.0 to 1.11 and 0.32 μM respectively.

In a further experiment the test system is A-427 (lung). The experiment can be described thus: Growth inhibition IC50, A-427 (lung) cell line. It counts as cell-based. Conditions: value (standard deviation). As to the method:
as §1

Another experiment relates to LCLC-103H (lung). The experiment can be described thus: Growth inhibition IC50, LCLC-103H (lung) cell line. The format is cell-based. As to conditions: value (standard deviation). As to the method:
as §1

Another experiment concerns 5637 (bladder). The experiment can be described thus: Growth inhibition IC50, 5637 (bladder) cell line. The format is cell-based. As to conditions: value (standard deviation). On the procedure:
as §1

Experiment [1] relates to L1210 mouse leukaemia cells. The experiment can be described thus: CC growth inhibition assay, L1210. It counts as cell-based. Conditions: Test CC, 40 μM highest dose tested. The text has this:
(§2) The data presented in Table3 is the results collected from the growth inhibition studies of selected compounds with the following cell lines: L1210 (mouse leukaemia cells), 2008 (human ovarian carcinoma cells), L1210/DDP and C13*5 (acquired cisplatin resistance) and SKOV-3 (intrinsic cisplatin resistance).

In experiment [2] the test system is L1210/DDP cisplatin-resistant cells. The experiment can be described thus: CC growth inhibition assay, L1210/DDP. It counts as cell-based, mouse. As to conditions: Test CC, 40 μM highest dose tested.
Source text: as §2

In experiment [3] the test system is C13*5 cisplatin-resistant cells. Description: Sulphorhodamine B (SRB) growth inhibition assay, C13. As to conditions: Test SRB, acquired cisplatin resistance. It counts as cell-based, human.
Source text: as §2

The subject of experiment [4] is 2008 human ovarian carcinoma cells. The experiment can be described thus: Sulphorhodamine B (SRB) growth inhibition assay, 2008. As to conditions: Test SRB. It counts as cell-based.
Source text: as §2

The subject of experiment [5] is SKOV-3 cells (intrinsically resistant to cisplatin). Description: Sulphorhodamine B (SRB) growth inhibition assay, SKOV-3. It counts as cell-based. As to conditions: Test SRB, intrinsic cisplatin resistance.
Source text: as §2

[6] abbreviates: first run, read-out: IC50 5637 (bladder).
[7] abbreviates: repeat run, read-out: IC50 5637 (bladder) Repeat.
Where [8] appears, read: listed as [Pt(R,R-bn)(phen)]Cl2.
The mark [9] stands for this setting: listed as [Pt(S,S-bn)(phen)]Cl2.
Where [10] appears, read: listed as [Pt(R,R-dach)(phen)](ClO4)2.
[11] abbreviates: listed as [Pt(S,S-dach)(phen)](ClO4)2.

Usually IC50 stands for the concentration needed to halve the response being measured. As for `N.N.[Cl][Pt][Cl]` [CDDP, cis-diamminedichloroplatinum (II), reference compound], the IC50 stood at 6.63 µM with KYSE 520 (esophagus); 4460 nM in the experiment on A-427 (lung); 1440 nM in the experiment on LCLC-103H (lung); 880 nM in the experiment on 5637 (bladder) (setting [6]); 430 nM with 5637 (bladder) (setting [7]).

As for `CC(N)C(C)N.[Cl-].[Cl-].[Pt+2].c1cnc2c(c1)ccc1cccnc12` [[Pt(2R,3R-bn)(phen)]Cl2] [(2R,3R-butanediamine)(1,10-phenanthroline)platinum(II) cation], the IC50 in the experiment with KYSE 520 (esophagus) was 0.67 µM; in the experiment on A-427 (lung), 540 nM; in the experiment with LCLC-103H (lung), 780 nM; with 5637 (bladder) (setting [6]) it was 320 nM; in the experiment with 5637 (bladder) (setting [7]), 430 nM; in experiment [1] (setting [8]) it was 1.5 µM. In addition, the 50% inhibitory concentration (IC50) in experiment [2] (setting [8]) was 2.5 µM and 1.9 µM; in [3] (setting [8]) it was 5.2 µM and 9 µM and 7.4 µM.

Turning to `CC(N)C(C)N.[Cl-].[Cl-].[Pt+2].c1cnc2c(c1)ccc1cccnc12` [[Pt(2S,3S-bn)(phen)]Cl2] [(2S,3S-butanediamine)(1,10-phenanthroline)platinum(II) cation], the IC50 in the experiment on KYSE 520 (esophagus) was 1.87 µM; with A-427 (lung), 1350 nM; in the experiment with LCLC-103H (lung), 2390 nM; in the experiment on 5637 (bladder) (setting [6]), 1110 nM; with 5637 (bladder) (setting [7]) it was 980 nM; in [1] (setting [9]) it was 3.8 µM and 3 µM. Further, the IC50 was 5.3 µM and 8 µM in [2] (setting [9]); 7.2 µM and 11 µM in experiment [4] (setting [9]); 26 µM and 22 µM and 28 µM in experiment [3] (setting [9]); 9.8 µM and 9.2 µM and 12 µM in experiment [5] (setting [9]).

As for `NCCN.[Cl-].[Cl-].[Pt+2].c1cnc2c(c1)c1nccnc1c1cccnc12` [[Pt(en)(dpq)]Cl2], the concentration for half-maximal inhibition (IC50) with KYSE 520 (esophagus) amounted to 19.4 µM; with A-427 (lung) it was 16400 nM; with LCLC-103H (lung), 23600 nM; in the experiment with 5637 (bladder) (setting [6]), 16700 nM.

In the case of `[Cl-].[Cl-].c1cc2ccc3ccc[n+]4c3c2[n+](c1)[Pt-2]41[NH2+]CC[NH2+]1` [[Pt(en)(phen)]Cl2, reference compound], the IC50 in the experiment with KYSE 520 (esophagus) was determined as 49.1 µM; with A-427 (lung), 24100 nM; in the experiment with LCLC-103H (lung) it was 41200 nM; in the experiment on 5637 (bladder) (setting [6]) it was 27000 nM; in the experiment on 5637 (bladder) (setting [7]), 23700 nM.

As to `CC(N)C(C)N.[Cl-].[Cl-].[Pt+2].c1cnc2c(c1)ccc1cccnc12` [[Pt(meso-2,3-bn)(phen)]Cl2] [(2S,3R-butanediamine)(1,10-phenanthroline)platinum(II) cation], the half-inhibitory concentration (IC50) came to 1.09 µM in the experiment on KYSE 520 (esophagus); 920 nM with A-427 (lung); 1070 nM in the experiment with LCLC-103H (lung); 610 nM in the experiment with 5637 (bladder) (setting [6]); 720 nM with 5637 (bladder) (setting [7]).

Regarding `N[C@@H]1CCCC[C@H]1N.[O-][Cl+3]([O-])([O-])[O-].[O-][Cl+3]([O-])([O-])[O-].[Pt+2].c1cnc2c(c1)ccc1cccnc12` [[Pt(phen)(R,R-dach)](ClO4)2, (1R,2R-cyclohexanediamine)(1,10-phenanthroline)platinum(II) cation], the IC50 in the experiment on 5637 (bladder) (setting [7]) was 540 nM; in experiment [1] (setting [10]), 1.4 µM and 1.6 µM; in experiment [2] (setting [10]) it was 4.3 µM and 4.5 µM; in [4] (setting [10]) it was 3.3 µM and 3.1 µM; in experiment [3] (setting [10]), 5.1 µM and 9.2 µM; in experiment [5] (setting [10]), 3.3 µM and 3.6 µM.

Consider `N[C@H]1CCCC[C@@H]1N.[O-][Cl+3]([O-])([O-])[O-].[O-][Cl+3]([O-])([O-])[O-].[Pt+2].c1cnc2c(c1)ccc1cccnc12` [[Pt(phen)(S,S-dach)](ClO4)2, (1S,2S-cyclohexanediamine)(1,10-phenanthroline)platinum(II) cation], for which the IC50 in the experiment with 5637 (bladder) (setting [7]) was 150 nM; in [1], 0.13 µM; in experiment [2] it was 0.28 ± 0.09 µM; in [4] (setting [11]) it was 0.37 µM and 0.45 µM; in experiment [3] (setting [11]), 0.56 µM and 0.88 µM; in experiment [5] (setting [11]), 0.31 µM and 0.42 µM.

Regarding “(N,N′-dimethyl-1R,2R-cyclohexanediamine)(1,10-phenanthroline)platinum(II) cation [[Pt(phen)(Me2-R,R-dach)](ClO4)2]”, the IC50 in the experiment with 5637 (bladder) (setting [7]) worked out at 23600 nM.

As for “(N,N′-dimethyl-1S,2S-cyclohexanediamine)(1,10-phenanthroline)platinum(II) cation [[Ptphen)(Me2-S,S-dach](ClO4)2]”, the IC50 turned out to be 55600 nM in the experiment with 5637 (bladder) (setting [7]) and 12 µM in [1] (listed as [Pt(Me2—S,S-dach)(phen)](ClO4)2).
